We go through 14 compounds from ChEMBL document CHEMBL5579861, “Cytotoxic Peptaibols from Trichoderma guizhouense, a Fungus Isolated from an Urban Soil Sample” (J Nat Prod, 2024).

One data set concerns SK-OV-3. The experiment in a line: Cytotoxicity against human SK-OV-3 cells assessed as reduction in cell viability after 24 hrs by MTT assay. The data set is classed as functional, cell-based. The following applies: SK-OV-3, 24 h. On the technique in general: Formazan colour is commonly taken as a measure of viable cells.
Another data set relates to HCT-116. As to the kind of experiment: Cytotoxicity against human HCT-116 cells assessed as reduction in cell viability after 24 hrs by MTT assay. The data set is classed as functional, cell-based. The conditions noted are these: HCT-116, 24 h.
The subject of another data set is MDA-MB-231. As to the kind of experiment: Cytotoxicity against human MDA-MB-231 cells assessed as reduction in cell viability after 24 hrs by MTT assay. The data set is classed as functional, cell-based. The following applies: MDA-MB-231, 24 h.
For a further data set, the system named is SK-HEP1. As to the kind of experiment: Cytotoxicity against human SK-HEP1 cells assessed as reduction in cell viability after 24 hrs by MTT assay. The data set is classed as functional, cell-based. The conditions noted are these: SK-HEP1, 24 h.
A further data set deals with DU-145. The experiment in a line: Cytotoxicity against human DU-145 cells assessed as reduction in cell viability after 24 hrs by MTT assay. The data set is classed as functional, cell-based. The conditions noted are these: DU-145, 24 h.
A short description of data set [1]: Selectivity index, ratio of EC50 for cytotoxicity against human HepG2 cells to EC50 for antimalarial activity against Plasmodium falciparum Dd2. The format is toxicity, cell-based. The conditions noted are these: read-out: Ratio EC50.
The next data set deals with Plasmodium falciparum. As to the kind of experiment: Antimalarial activity against Plasmodium falciparum Dd2 assessed as reduction in parasite growth incubated for 72 hrs by SYBR Green I staining based assay. The format is functional, organism-based. The following applies: Dd2, 72 h.
Data set [2] is described as follows: Cytotoxicity against human HepG2 cells assessed as reduction in cell viability after 48 hrs by MTS assay. The data set is classed as toxicity, cell-based.

Molecules are shown by their SMILES. Non-standard residues stand in square brackets, D forms with d. Residues, ends and D or L forms follow the SMILES beside them. *: point of attachment. Leu(ol) = CC(C)C[C@H](N)CO; dIva = CC[C@@](C)(N)C(=O)O; Valol = CC(C)[C@@H](CO)N*; Aib = CC(C)(N)C(=O)O

What is called IC50 is the concentration that inhibits the measured activity by half. Regarding `CC[C@@](C)(NC(C)=O)C(=O)N[C@@H](CCC(N)=O)C(=O)N[C@@H](CC(C)C)C(=O)NC(C)(C)C(=O)N1CCC[C@H]1C(=O)N[C@@H](C)C(=O)N[C@H](C(=O)NC(C)(C)C(=O)N1CCC[C@H]1C(=O)N[C@@H](CC(C)C)C(=O)N[C@@H](CC(C)C)C(=O)NC(C)(C)C(=O)N1CCC[C@H]1C(=O)N[C@H](CO)CC(C)C)C(C)C`, the IC50 in the data set with SK-OV-3 amounted to 15 µM; in the data set on HCT-116, 14 µM; in the data set with MDA-MB-231 it was 14 µM; in the data set with SK-HEP1 it was 19 µM; in the data set with DU-145, 25 µM.
For `CC[C@@](C)(NC(=O)[C@H](C)NC(=O)[C@H](CO)NC(=O)C(C)(C)NC(C)=O)C(=O)N[C@](C)(CC)C(=O)N[C@@H](CCC(N)=O)C(=O)N[C@](C)(CC)C(=O)N[C@@H](CC(C)C)C(=O)NC(C)(C)C(=O)N[C@@H](C)C(=O)NC(C)(C)C(=O)NC(C)(C)C(=O)N1CCC[C@H]1C(=O)N[C@@H](CC(C)C)C(=O)NC(C)(C)C(=O)NC(C)(C)C(=O)N[C@@H](CCC(N)=O)C(=O)N[C@H](CO)C(C)C`, the IC50 is 0.91 µM with SK-OV-3; 0.71 µM in the data set on HCT-116; 0.68 µM in the data set on MDA-MB-231; 0.91 µM in the data set on SK-HEP1; 1.4 µM with DU-145.
As for `CC[C@@](C)(NC(C)=O)C(=O)N[C@@H](CCC(N)=O)C(=O)N[C@@H](CC(C)C)C(=O)NC(C)(C)C(=O)N1CCC[C@H]1C(=O)N[C@@H](C)C(=O)N[C@H](C(=O)NC(C)(C)C(=O)N1CCC[C@H]1C(=O)N[C@](C)(CC)C(=O)N[C@@H](CC(C)C)C(=O)NC(C)(C)C(=O)N1CCC[C@H]1C(=O)N[C@H](CO)CC(C)C)C(C)C`, the IC50 in the data set with SK-OV-3 stood at 4.3 µM; with HCT-116 it was 2.7 µM; in the data set on MDA-MB-231 it was 5.9 µM; in the data set with SK-HEP1, 4.3 µM; with DU-145, 9.2 µM.
`CC[C@@](C)(NC(=O)[C@H](C)NC(=O)[C@H](C)NC(=O)C(C)(C)NC(C)=O)C(=O)N[C@](C)(CC)C(=O)N[C@@H](CCC(N)=O)C(=O)N[C@](C)(CC)C(=O)N[C@@H](CC(C)C)C(=O)NC(C)(C)C(=O)N[C@@H](C)C(=O)NC(C)(C)C(=O)NC(C)(C)C(=O)N1CCC[C@H]1C(=O)N[C@@H](CC(C)C)C(=O)NC(C)(C)C(=O)NC(C)(C)C(=O)N[C@@H](CCC(N)=O)C(=O)N[C@H](CO)C(C)C`: the IC50 turned out to be 2.9 µM with SK-OV-3; 0.83 µM with HCT-116; 0.85 µM in the data set with MDA-MB-231; 0.97 µM in the data set with SK-HEP1; 4.5 µM in the data set on DU-145.
For the compound `CC[C@H](C)[C@H](NC(=O)[C@@](C)(CC)NC(=O)[C@@H]1CCCN1C(=O)C(C)(C)NC(=O)[C@@H](NC(=O)[C@H](C)NC(=O)[C@@H]1CCCN1C(=O)C(C)(C)NC(=O)[C@H](CC(C)C)NC(=O)[C@H](CCC(N)=O)NC(=O)C(C)(C)NC(C)=O)C(C)C)C(=O)NC(C)(C)C(=O)N1CCC[C@H]1C(=O)N[C@H](CO)C(C)C`, the IC50 in the data set on SK-OV-3 turned out to be 3.8 µM; in the data set on HCT-116, 3.5 µM; with MDA-MB-231, 3.9 µM; in the data set on SK-HEP1, 4.6 µM; with DU-145 it was 9.3 µM.
`CC[C@@](C)(NC(=O)[C@H](C)NC(=O)[C@H](CO)NC(=O)C(C)(C)NC(C)=O)C(=O)N[C@](C)(CC)C(=O)N[C@@H](CCC(N)=O)C(=O)N[C@](C)(CC)C(=O)N[C@@H](CC(C)C)C(=O)NC(C)(C)C(=O)N[C@@H](C)C(=O)NC(C)(C)C(=O)NC(C)(C)C(=O)N1CCC[C@H]1C(=O)N[C@@H](CC(C)C)C(=O)NC(C)(C)C(=O)NC(C)(C)C(=O)N[C@@H](CCC(N)=O)C(=O)N[C@H](COC(C)=O)C(C)C`: the IC50 was 2.9 µM in the data set on SK-OV-3; 0.88 µM with HCT-116; 0.84 µM in the data set on MDA-MB-231; 2.1 µM in the data set with SK-HEP1; 1.5 µM in the data set on DU-145.
As for `CC[C@H](C)[C@H](NC(=O)C(C)(C)NC(=O)[C@@H]1CCCN1C(=O)C(C)(C)NC(=O)[C@@H](NC(=O)[C@H](C)NC(=O)[C@@H]1CCCN1C(=O)C(C)(C)NC(=O)[C@H](CC(C)C)NC(=O)[C@H](CCC(N)=O)NC(=O)[C@@](C)(CC)NC(C)=O)C(C)C)C(=O)NC(C)(C)C(=O)N1CCC[C@H]1C(=O)N[C@H](CO)CC(C)C`, the IC50 is more than 50 µM in the data set on SK-OV-3; 16 µM in the data set with HCT-116; 20 µM with MDA-MB-231; 4.8 µM in the data set with SK-HEP1; more than 50 µM with DU-145.
Consider `CC[C@H](C)[C@H](NC(=O)[C@@](C)(CC)NC(=O)[C@@H]1CCCN1C(=O)C(C)(C)NC(=O)[C@@H](NC(=O)[C@H](C)NC(=O)[C@@H]1CCCN1C(=O)C(C)(C)NC(=O)[C@H](CC(C)C)NC(=O)[C@H](CCC(N)=O)NC(=O)C(C)(C)NC(C)=O)C(C)C)C(=O)NC(C)(C)C(=O)N1CCC[C@H]1C(=O)N[C@H](CO)CC(C)C`, for which the IC50 in the data set with SK-OV-3 came out at 3.8 µM; in the data set with HCT-116, 3 µM; with MDA-MB-231, 4.3 µM; in the data set on SK-HEP1, 3.8 µM; with DU-145, 10 µM.
In the case of `CC[C@H](C)[C@H](NC(=O)[C@@](C)(CC)NC(=O)[C@@H]1CCCN1C(=O)C(C)(C)NC(=O)[C@@H](NC(=O)[C@H](C)NC(=O)[C@@H]1CCCN1C(=O)C(C)(C)NC(=O)[C@H](CC(C)C)NC(=O)[C@H](CCC(N)=O)NC(=O)[C@@](C)(CC)NC(C)=O)C(C)C)C(=O)NC(C)(C)C(=O)N1CCC[C@H]1C(=O)N[C@H](CO)CC(C)C`, the IC50 with SK-OV-3 was determined as 9.2 µM; in the data set on HCT-116 it was 4.8 µM; in the data set on MDA-MB-231, 5.5 µM; with SK-HEP1, 8 µM; with DU-145, 20 µM.
As to `CC[C@H](C)[C@H](NC(=O)C(C)(C)NC(=O)[C@@H]1CCCN1C(=O)C(C)(C)NC(=O)[C@@H](NC(=O)[C@H](C)NC(=O)[C@@H]1CCCN1C(=O)C(C)(C)NC(=O)[C@H](CC(C)C)NC(=O)[C@H](CCC(N)=O)NC(=O)C(C)(C)NC(C)=O)C(C)C)C(=O)NC(C)(C)C(=O)N1CCC[C@H]1C(=O)N[C@H](CO)C(C)C` (Ac-[Aib]QL[Aib]PAV[Aib]P[Aib]I[Aib]P-Valol), the IC50 came to 7.8 µM in the data set on SK-OV-3; 9.5 µM in the data set with HCT-116; 4.6 µM in the data set with MDA-MB-231; 11 µM in the data set with SK-HEP1; 16 µM with DU-145.
As to `CC[C@H](C)[C@H](NC(=O)C(C)(C)NC(=O)[C@@H]1CCCN1C(=O)C(C)(C)NC(=O)[C@@H](NC(=O)[C@H](C)NC(=O)[C@@H]1CCCN1C(=O)C(C)(C)NC(=O)[C@H](CC(C)C)NC(=O)[C@H](CCC(N)=O)NC(=O)C(C)(C)NC(C)=O)C(C)C)C(=O)NC(C)(C)C(=O)N1CCC[C@H]1C(=O)N[C@H](CO)CC(C)C` (Ac-[Aib]QL[Aib]PAV[Aib]P[Aib]I[Aib]P[Leu(ol)]), the IC50 in the data set on SK-OV-3 worked out at 24 µM; with HCT-116, 16 µM; in the data set with MDA-MB-231, 37 µM; in the data set with SK-HEP1 it was 31 µM; with DU-145, 36 µM.
With `CC(=O)NC(C)(C)C(=O)N[C@@H](CCC(N)=O)C(=O)N[C@@H](CC(C)C)C(=O)NC(C)(C)C(=O)N1CCC[C@H]1C(=O)N[C@@H](C)C(=O)N[C@H](C(=O)NC(C)(C)C(=O)N1CCC[C@H]1C(=O)NC(C)(C)C(=O)N[C@H](C(=O)NC(C)(C)C(=O)N1CCC[C@H]1C(=O)N[C@H](CO)CC(C)C)C(C)C)C(C)C` (Ac-[Aib]QL[Aib]PAV[Aib]P[Aib]V[Aib]P[Leu(ol)]), the IC50 in the data set on SK-OV-3 stood at 5.3 µM; with HCT-116 it was 7.1 µM; with MDA-MB-231, 6.4 µM; with SK-HEP1 it was 8.9 µM; in the data set with DU-145, 11 µM.
What is called EC50 is the concentration needed to bring the measured effect to its halfway point. As for `CC[C@H](C)[C@H](NC(=O)[C@H](CC(C)C)NC(=O)[C@H](CCC(N)=O)NC(=O)[C@@](C)(CC)NC(C)=O)C(=O)NC(C)(C)C(=O)N1CCC[C@H]1C(=O)N[C@](C)(CC)C(=O)N[C@@H](CC(C)C)C(=O)NC(C)(C)C(=O)N1CCC[C@H]1C(=O)N[C@H](CO)CC(C)C` (Ac-[dIva]QLI[Aib]P[dIva]L[Aib]P[Leu(ol)]), the selectivity ratio in data set [1] was more than 250. Moreover, in the data set with Plasmodium falciparum, the EC50 is 0.1 µM. Besides, the EC50 at 48 h in data set [2] was more than 25 µM.
For the compound `CC(=O)O[C@@]12CO[C@@H]1C[C@H](O)[C@@]1(C)C(=O)[C@H](O)C3=C(C)[C@@H](OC(=O)[C@H](O)[C@@H](NC(=O)OC(C)(C)C)c4ccccc4)C[C@@](O)([C@@H](OC(=O)c4ccccc4)[C@H]21)C3(C)C` [DOCETAXEL ANHYDROUS], the IC50 in the data set on SK-OV-3 stood at 0.05 µM; in the data set with MDA-MB-231, 0.17 µM; in the data set with SK-HEP1, 0.03 µM; with DU-145, 0.04 µM.
